{"source": "patent US9283243B2", "about": "“CD36 inhibition to control obesity and insulin sensitivity” (CORNELL UNIVERSITY CORNELL CENTER FOR TECHNOLOGY, …, priority 2010, dated 2016)", "key": {"CD36 mRNA [1]": {"test_system": "CD36 mRNA", "experiment": "CD36 siRNA transfection in C8-D1A cells, CD36 mRNA levels", "assay_type": "cell-based", "settings": "20 nM siRNA, 24h after transfection, N=4, vs negative control", "experimental": "FIG. 4. Efficacy of CD36 siRNA. 20 nM siRNA either singly or in combination were transfected in C8-D1A cells. CD36 mRNA levels were measured 24h later. N=4. Negative controls were adjusted to the amount of siRNA. **p<0.01, ***p<0.001 vs correponding control.\nCD36 was inhibited using an RNAi technique. 20 nM siRNA either singly or in combination were transfected in C8-D1A cells. CD36 mRNA levels were measured 24h later. N=4. Negative controls were adjusted to the amount of siRNA. **p<0.01, ***p<0.001 vs correponding control."}, "CD36 [2]": {"target": "T1, CD36 (Homo sapiens, UniProt P16671)", "T1 sequence (P16671 whole entry)": "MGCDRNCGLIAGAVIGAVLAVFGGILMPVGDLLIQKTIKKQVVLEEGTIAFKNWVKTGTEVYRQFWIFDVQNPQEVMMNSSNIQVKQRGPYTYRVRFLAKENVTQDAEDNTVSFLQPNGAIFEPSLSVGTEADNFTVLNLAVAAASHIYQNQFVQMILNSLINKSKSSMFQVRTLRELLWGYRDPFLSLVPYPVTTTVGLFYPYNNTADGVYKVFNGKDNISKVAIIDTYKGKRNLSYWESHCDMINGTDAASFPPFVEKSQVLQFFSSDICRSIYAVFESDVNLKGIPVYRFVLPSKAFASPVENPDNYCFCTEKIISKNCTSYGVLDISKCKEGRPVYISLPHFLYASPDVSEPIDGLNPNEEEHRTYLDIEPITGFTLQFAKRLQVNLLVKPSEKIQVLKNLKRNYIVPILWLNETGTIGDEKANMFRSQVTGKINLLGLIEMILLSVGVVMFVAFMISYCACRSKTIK", "settings": "Demers et al. 2004, cited from earlier work"}, "CD36 [3]": {"target": "T1, CD36", "settings": "Xu, Y et al., Anal Biochem 2010; cited from earlier work"}, "CD36 [4]": {"test_system": "CD36", "settings": "literature, cited from earlier work"}, "CD36 [5]": {"target": "T1, CD36", "experiment": "High throughput screen for CD36 antagonists", "description": "Candidate modulator compounds from libraries of synthetic or natural compounds can be screened by methods known in the art (see Chinese patent number ZL200510072269.1, Publication No: CN1868546, and Chinese patent application number 200910147634.9, each hereby incorporated in its entirety by reference). Synthetic compound libraries are commercially available from a number of companies including Maybridge Chemical Co. (Trevillet, Cornwall, UK), Comgenex (Princeton, N.J.), Brandon Associates (Merrimack, N.H.), and Microsource (New Milford, Conn.). Combinatorial libraries are available or can be prepared according to known synthetic techniques. Alternatively, libraries of natural compounds in the form of bacterial, fungal, plant and animal extracts are available from e.g., Pan Laboratories (Bothell, Wash.) or MycoSearch (NC), or are readily producible by methods well known in the art. Additionally, natural and synthetically produced libraries and compounds can be further modified through conventional chemical and biochemical techniques.\nThe use of high throughput screening has allowed the identification of compounds that potently antagonize CD36 in vitro. Following isolation of CD36 antagonists by in vitro testing, experiments can be conducted to test the efficacy in vivo. […]"}, "CD36 mRNA [6]": {"test_system": "CD36 mRNA", "experiment": "CD36 gene expression in peritoneal macrophages and spleen from vehicle and SAB-treated mice", "assay_type": "in vivo, mouse", "settings": "SAB-treated vs vehicle mice", "description": "(§1) FIG. 1A-1I. In vivo effect of chronic SAB treatment on physiological responses. (A), Body weight changes in ApoE KO mice fed a high fat diet for 8 weeks in vehicle (Veh)- and salvianolic acid (SAB)-treated mice. (B), Pictures were taken at the end of 8 weeks of high fat diet. […] (C), Fasting blood glucose levels. (D), Glucose tolerance test. (E), Area under curve (AUC). (F), CD36 mRNA levels in peritoneal macrophages and spleen from vehicle and SAB treated mice. (G), Measurement of lipid content from blood vessels. Lipid extraction and determination was performed using published methods (Kim et al., 2008). (H), Fold increases of plasma cholesterol levels 4 and 8 weeks after high fat diet. (I), Oil red O staining in the liver of vehicle and SAB treated mice. […] Number in parentheses indicates number of animals for the measurements.\nSAB treatment reduces CD36 expression in peritoneal macrophages. Since CD36 is expressed in monocytes and macrophages, CD36 gene expression was compared in peritoneal macrophages and the spleen, a peripheral organ that serves as a reservoir of monocytes, from vehicle and SAB-treated mice. CD36 mRNA levels were reduced in both peritoneal and spleen macrophages of SAB-treated mice (FIG. 1F). […]"}, "[7]": {"test_system": "hyperlipidemic ApoE KO (AKO) mice", "experiment": "Fasting blood glucose and glucose tolerance test in SAB-treated high fat fed ApoE KO mice", "assay_type": "in vivo, mouse", "description": "as §1\nSAB treatment improves insulin sensitivity. Fasting blood glucose levels were similar in SAB-treated and control mice at zero, four, and eight weeks of treatment (FIG. 1C). However, when mice were challenged with glucose tolerance test (an intraperitoneal injection of […]), blood glucose was cleared much faster in SAB-treated mice (45 minutes after challenge, initial blood glucose spike reduced by 75%) relative to vehicle-treated mice (45 minutes after challenge, initial spike in blood glucose reduced by less than 10%; FIG. 1D)."}, "[8]": {"test_system": "hyperlipidemic ApoE KO (AKO) mice", "experiment": "Chronic SAB treatment of ApoE KO mice fed a high fat diet for 8 weeks: body weight, fat, cholesterol, liver and vessel lipid", "assay_type": "in vivo, mouse", "settings": "for average visceral fat weight: p<0.001", "description": "as §1\nFIG. 2A-2B. Visceral fat weight in high fat fed ApoE KO mice treated with SAB (100 mg/kg) for 8 weeks. 100 mg/kg SAB or vehicle (veh) was injected every other day by subcutaneous injection. n=8-10/group. […] (B), SAB reduced visceral fat weight from average=81 mg/animal to average=32 mg/animal. ***, p<0.001.\nChronic SAB treatment in hyperlipidemic ApoE KO (AKO) mice reduces weight gain and visceral fat accumulation. […] Feeding a high fat diet to the ApoE KO mice for 8 weeks increases plasma cholesterol levels approximately 5 fold (Kim et al., 2008). Six week old male ApoE KO (HL AKO) mice were fed a high fat diet for 8 weeks with or without SAB (100 mg/kg, subcutaneously every other day). […] The difference in weight between the groups was apparent by the 3rd week of treatment (FIG. 1A). […] Thus, SAB reduces body weight and fat accumulation, particularly visceral/abdominal fat accumulation and liver fat deposits, and also lowers plasma cholesterol.\nVisceral fat weight in high fat fed ApoE KO mice treated with either vehicle or SAB (100 mg/kg) for 8 weeks. 100 mg/kg SAB or vehicle (veh) was injected every other day by subcutaneous injection. n=8-10 mice/group, ***, p<0.001. […] SAB reduced visceral fat weight by 60% (32 mg average visceral fat weight in SAB treated mice versus 81 mg average visceral fat weight in controls; FIG. 2B). This provides further evidence that CD36 antagonists can reduce fat accumulation, particularly visceral fat accumulation."}, "[9]": {"test_system": "ApoE KO mouse macrophages", "experiment": "Foam cell assay / lipid accumulation in primary macrophages incubated with oxLDL", "assay_type": "cell-based", "settings": "48 h, vs oxLDL alone", "experimental": "FIG. 5. Effects of SAB on lipid accumulation in ApoE KO mouse macrophages. Primary macrophages were seeded in 4 chamber slides and then incubated with 20 μg/ml oxLDL and/or different concentrations of SAB for 48 h. (A-D) Lipids were stained with oil red O and examined by microscopy; representative images are shown. (A), vehicle only; (B), 25 μM SAB treatment; (C), 20 μg/ml oxLDL; (D), 20 μg/ml oxLDL+25 μM SAB. Scale bar, 50 μm; higher magnification micrographs of oil red O stains were shown in upper-right of each picture. (E-F), Quantification for foam cell assay in primary macrophage. White bar, macrophages incubated with vehicle only (no oxLDL or SAB); black bar, incubated with 20 μg/ml oxLDL; grey bars, incubated with 20 μg/ml oxLDL plus 10, 25 or 100 μM SAB (SAB concentration listed below each bar); (E), Degree of lipid accumulation measured as intensity of integrated optical density; (F), Foam cell average area compared to average area of control macrophages incubated with vehicle. Control (vehicle-treated) average individual macrophage cell size/ area was normalized as 1; macrophages treated with oxLDL show increased individual relative cell area resulting from lipid internalization (black bar); SAB treatment (grey bars) reduced lipid internalization and relative cell size/area. n=3-6 cells/group. **,***p<0.01, 0.001 compared with no oxLDL(0).\nSAB reduces lipid accumulation in ApoE KO mouse macrophages. Primary macrophages were isolated from ApoE KO mice and incubated with oxidized low density lipoproteins (oxLDL) and/or different concentrations of SAB for 48 h, then stained for lipid accumulation. […] Thus, CD36 antagonists can prevent accumulation of fat and lipids in cells subject to lipid-rich environments.\nSAB reduces lipid accumulation and foam cell formation. Primary macrophages cultured from ApoE KO mice show a low intensity of optical density (IOD) commensurate with small cellular area (FIGS. 5E and 5F, white bar). […]"}, "[10]": {"settings": "SAB 100 mg/kg s.c. every other day, high fat diet 8 weeks"}, "[11]": {"settings": "20 μg/ml oxLDL plus 10, 25 or 100 μM SAB"}}, "note": "Entries after “also recorded” stand apart in the source; their conditions may differ. Square brackets hold non-standard residues; d marks the D form. Peptide text beside a SMILES is read from it. dTrp(2-Me) = Cc1[nH]c2ccccc2c1C[C@@H](N)C(=O)O"}
{"molecule": "MSS202776: CD36 siRNA, exon7, SEQ ID NO: 3 and 4 (chain 1 CUUGUUUGGAACACAGAAGACUUGG; chain 2 CCAAGUCUUCUAUGUUCCAAACAAG; chemistry not given here)", "values": [{"measurement": "CD36 gene expression (CD36 mRNA levels)", "setting": "CD36 mRNA [1]", "value": "reduced CD36 gene expression significantly"}]}
{"molecule": "MSS202777: CD36 siRNA, exon11, SEQ ID NO: 5 and 6 (chain 1 ACACCAUAAGAUGUACAGUUAUUGG; chain 2 CCAAUAACUGUACAUCUUAUGGUGU; chemistry not given here)", "values": [{"measurement": "CD36 gene expression (CD36 mRNA levels)", "setting": "CD36 mRNA [1]", "value": "reduced CD36 gene expression significantly"}]}
{"molecule": "Cc1[nH]c2ccccc2c1C[C@@H](NC(=O)[C@@H](N)Cc1cnc[nH]1)C(=O)N[C@@H](C)C(=O)N[C@@H](Cc1c[nH]c2ccccc12)C(=O)N[C@H](Cc1ccccc1)C(=O)N[C@@H](CCCCN)C(N)=O", "note": "[hexarelin] (H-H[dTrp(2-Me)]AW[dF]K-NH2)", "values": [{"measurement": "binding to CD36 receptors", "setting": "CD36 [2]", "value": "binds"}, {"measurement": "CD36-mediated uptake of oxLDLs", "setting": "CD36 [2]; binding site competition", "value": "blocks"}]}
{"molecule": "CCCCCc1c2[n+](cc3c(OC)c(OC)ccc13)CCc1cc3c(cc1-2)OCO3", "note": "[13 pentyl berberine]", "values": [{"measurement": "CD36 antagonist identification through high-throughput screening", "setting": "CD36 [3]", "value": "identified"}]}
{"molecule": "MSS202775: CD36 siRNA from exon9, SEQ ID NO: 1 and 2 (chain 1 UAGCUUGGCCAAUAGGACAAAUUCC; chain 2 GGAAUUUGUCCUAUUGGCCAAGCUA; chemistry not given here)", "values": [{"measurement": "CD36 gene expression (CD36 mRNA levels)", "setting": "CD36 mRNA [1]", "value": "reduced CD36 gene expression significantly"}, {"measurement": "CD36 gene expression (CD36 mRNA levels)", "setting": "CD36 mRNA [1]; listed as siRNA 75", "value": "most effective"}]}
{"molecule": "Cc1c(C)c2c(c(C)c1O)CC[C@@](C)(CCC[C@H](C)CCC[C@H](C)CCCC(C)C)O2", "note": "[α-tocopherol]", "values": [{"measurement": "uptake of oxLDLs into macrophages", "setting": "CD36 [4]", "value": "can reduce"}, {"measurement": "expression of CD36", "setting": "CD36 [4]; macrophages", "value": "can reduce"}]}
{"molecule": "O=C(/C=C/c1ccccc1)c1c[nH]c2ccccc12", "note": "[3-cinnamoyl indole]", "values": [{"measurement": "CD36 antagonist identification through high-throughput screening", "setting": "CD36 [3]", "value": "identified"}]}
{"molecule": "O=C(/C=C/c1ccc(O)c2c1[C@H](C(=O)O[C@H](Cc1ccc(O)c(O)c1)C(=O)O)C(c1ccc(O)c(O)c1)O2)O[C@@H](Cc1ccc(O)c(O)c1)C(=O)O", "note": "(stereo in doubt) [SAB, salvianolic acid B]", "values": [{"measurement": "CD36 antagonist identification in high throughput screen", "setting": "CD36 [5]", "value": "identified as a CD36 antagonist"}, {"measurement": "CD36 mRNA levels in peritoneal macrophages", "setting": "CD36 mRNA [6]", "value": "reduced"}, {"measurement": "CD36 mRNA levels in spleen macrophages", "setting": "CD36 mRNA [6]", "value": "reduced"}, {"measurement": "reduction of initial blood glucose spike in glucose tolerance test", "setting": "[7]; 45 minutes after challenge, intraperitoneal injection of 1.5 mg glucose/kg, vehicle less than 10%", "value": 75, "unit": "%"}, {"measurement": "AUCglucose (glucose area under the curve) in glucose tolerance test", "setting": "[7]; SAB-treated vs vehicle-treated mice", "value": "significant reduction"}, {"measurement": "fasting blood glucose levels vs control mice", "setting": "[7]; zero, four, and eight weeks of treatment", "value": "similar"}, {"measurement": "reduction of visceral fat weight", "setting": "[8]; SAB 100 mg/kg s.c. every other day, 8 weeks, vs controls", "value": 60, "unit": "%"}, {"measurement": "average visceral fat weight", "setting": "[8]; SAB 100 mg/kg s.c. every other day, 8 weeks, controls 81 mg", "value": 32, "unit": "mg"}, {"measurement": "average visceral fat weight", "setting": "[8]; SAB 100 mg/kg s.c. every other day, 8 weeks, vehicle 81 mg/animal", "value": 32, "unit": "mg/animal"}, {"measurement": "fat deposition in the liver (Oil red O staining)", "setting": "[8]; [10]", "value": "profoundly reduced; also recorded: significantly reduced"}, {"measurement": "leaner compared to vehicle treated ApoE KO mice", "setting": "[8]; [10]", "value": 17, "unit": "%"}, {"measurement": "abdominal fat accumulation", "setting": "[8]; SAB 100 mg/kg s.c. every other day, high fat diet 8 weeks, physical inspection", "value": "Reduction in abdominal fat was evident; also recorded: substantially reduced; also recorded: either minimal or absent"}, {"measurement": "plasma cholesterol levels", "setting": "[8]; SAB 100 mg/kg s.c. every other day, high fat diet, 4 and 8 weeks", "value": "significantly reduced"}, {"measurement": "rate of weight gain (weekly body weight)", "setting": "[8]; SAB 100 mg/kg subcutaneously every other day, high fat diet 8 weeks, vs vehicle", "value": "significantly reduced"}, {"measurement": "lipid content in the aorta and extended vessels", "setting": "[8]; preliminary analysis, SAB-treated vs vehicle mice", "value": "trend toward lipid content reduction"}, {"measurement": "lipid accumulation (oil red O staining)", "setting": "[9]; 20 μg/ml oxLDL + 25 μM SAB", "value": "significantly reduced lipid accumulation"}, {"measurement": "lipid accumulation as intensity of optical density (IOD)", "setting": "[9]; [11]", "value": "significantly reduced"}, {"measurement": "relative cell area (foam cell average area)", "setting": "[9]; [11]", "value": "significantly reduced"}]}
